Columns and labels:
[1] = molecular target: Histamine H4 receptor (Homo sapiens, UniProt Q9H3N8); test: Displacement of [3H]histamine from wild type human histamine H4 receptor transfected in HEK293T cells after 1.5 hrs by liquid scintillation counting analysis; assay type: cell-based, HEK-293T
[2] = molecular target: Histamine H4 receptor (Homo sapiens, UniProt Q9H3N8, E182Q); test: Displacement of [3H]-JNJ 7777120 from human histamine H4 receptor E182'5.46Q mutant transfected in HEK293T cells after 1.5 hrs by liquid scintillation counting analysis
Histamine H4 receptor (Homo sapiens, UniProt Q9H3N8, E182Q), sequence (Q9H3N8 whole entry E182Q): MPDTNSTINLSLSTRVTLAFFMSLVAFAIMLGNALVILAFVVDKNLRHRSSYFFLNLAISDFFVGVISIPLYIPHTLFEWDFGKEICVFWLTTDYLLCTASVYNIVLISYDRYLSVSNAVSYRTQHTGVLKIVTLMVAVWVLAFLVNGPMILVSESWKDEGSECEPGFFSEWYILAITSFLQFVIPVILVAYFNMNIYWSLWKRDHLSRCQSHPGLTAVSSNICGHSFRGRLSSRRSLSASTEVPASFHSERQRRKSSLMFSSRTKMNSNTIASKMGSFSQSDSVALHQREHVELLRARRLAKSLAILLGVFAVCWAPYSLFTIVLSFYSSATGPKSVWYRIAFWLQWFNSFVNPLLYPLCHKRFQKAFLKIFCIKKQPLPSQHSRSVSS

[3] = molecular target: Histamine H4 receptor (Homo sapiens, UniProt Q9H3N8, L175V); test: Displacement of [3H]histamine from human histamine H4 receptor L175'5.39V mutant transfected in HEK293T cells after 1.5 hrs by liquid scintillation counting analysis; assay type: cell-based, HEK-293T
Histamine H4 receptor (Homo sapiens, UniProt Q9H3N8, L175V), sequence (Q9H3N8 whole entry L175V): as the sequence (Q9H3N8 whole entry E182Q) above, with L175V, Q182E counted along it

Compound | Ki [1] [µM] | Ki [2] [µM] | Ki [3] [µM]
COc1ccc2[nH]c(C(=O)N3CCN(C)CC3)cc2c1 | 5.01 |  | 
CN1CCN(C(=O)c2cc3cc([N+](=O)[O-])ccc3[nH]2)CC1 | 0.1 |  | 
CN1CCN(c2cc(-c3ccccc3)nc(N)n2)CC1 |  | 0.0631 | 0.02
COc1ccc(-c2cc(N3CCN(C)CC3)nc(N)n2)cc1 | 0.0158 |  | 

Second part, the compound after the results:

Ki [1] [µM] | Ki [2] [µM] | Ki [3] [µM] | Compound
0.00501 |  |  | CN1CCN(c2cc(-c3ccc(N)cc3)nc(N)n2)CC1
0.00794 |  |  | CN1CCN(c2cc(-c3ccc([N+](=O)[O-])cc3)nc(N)n2)CC1
0.002 | 0.2 | 0.0631 | CN1CCN(c2cc(-c3ccc(Cl)cc3)nc(N)n2)CC1

Source: ChEMBL document CHEMBL3132790 (Medchemcomm, 2013)
